In ChEMBL document CHEMBL1649201, “VanB-type Enterococcus faecium clinical isolate successively inducibly resistant to, dependent on, and constitutively resistant to vancomycin” (2009):
≈ marks a conversion by molar mass, not a printed value.

What was measured:
[1] = target: T1, D,D-carboxypeptidase (Enterococcus faecium) (UniProt Q7BI95); assay: Activity of D,D-carboxypeptidase in vancomycin-dependent VanB-type Enterococcus faecium BM4660 membrane fraction assessed as enzyme mediated D-Alanine release per mg protein at 8 ug/ml
T1 sequence (whole entry): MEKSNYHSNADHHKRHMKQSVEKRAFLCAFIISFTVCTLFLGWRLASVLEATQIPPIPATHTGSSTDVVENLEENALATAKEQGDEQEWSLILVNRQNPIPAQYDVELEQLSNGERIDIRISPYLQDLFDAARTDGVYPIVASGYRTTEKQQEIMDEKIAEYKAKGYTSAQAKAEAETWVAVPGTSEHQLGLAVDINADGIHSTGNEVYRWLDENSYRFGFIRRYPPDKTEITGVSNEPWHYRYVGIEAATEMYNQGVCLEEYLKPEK

[2] = target: T1, D,D-carboxypeptidase (Enterococcus faecium); assay: Activity of D,D-carboxypeptidase in vancomycin-revertant and teicoplanin-sensitive VanB-type Enterococcus faecium BM4661 cytoplasmic fraction assessed as enzyme mediated D-Alanine release per mg protein at 8 ug/ml
[3] = tested on: Enterococcus faecium; assay: Antimicrobial activity against vancomycin-resistant and teicoplanin-sensitive VanB-type Enterococcus faecium BM4659; type: functional
[4] = target: T2, D,D-dipeptidase (Enterococcus faecium) (UniProt Q9EYV8); assay: Activity of D,D-dipeptidase in vancomycin-revertant and teicoplanin-sensitive VanB-type Enterococcus faecium BM4661 assessed as enzyme mediated D-Alanine release per mg protein at 8 ug/ml
T2 sequence (whole entry): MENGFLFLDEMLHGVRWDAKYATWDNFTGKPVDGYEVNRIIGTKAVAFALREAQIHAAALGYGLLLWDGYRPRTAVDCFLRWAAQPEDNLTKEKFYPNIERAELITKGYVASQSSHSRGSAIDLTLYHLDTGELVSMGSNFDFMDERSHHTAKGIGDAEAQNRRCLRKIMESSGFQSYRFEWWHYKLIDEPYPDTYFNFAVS

[5] = target: T1, D,D-carboxypeptidase (Enterococcus faecium); assay: Activity of D,D-carboxypeptidase in vancomycin-dependent VanB-type Enterococcus faecium BM4660 cytoplasmic fraction assessed as enzyme mediated D-Alanine release per mg protein at 8 ug/ml
[6] = target: T1, D,D-carboxypeptidase (Enterococcus faecium); assay: Activity of D,D-carboxypeptidase in vancomycin-resistant and teicoplanin-sensitive VanB-type Enterococcus faecium BM4659 cytoplasmic fraction assessed as enzyme mediated D-Alanine release per mg protein at 8 ug/ml
[7] = target: T2, D,D-dipeptidase (Enterococcus faecium); assay: Activity of D,D-dipeptidase in vancomycin-dependent VanB-type Enterococcus faecium BM4660 assessed as enzyme mediated D-Alanine release per mg protein at 8 ug/ml
[8] = target: T2, D,D-dipeptidase (Enterococcus faecium); assay: Activity of D,D-dipeptidase in vancomycin-resistant and teicoplanin-sensitive VanB-type Enterococcus faecium BM4659 assessed as enzyme mediated D-Alanine release per mg protein at 8 ug/ml
[9] = tested on: Enterococcus faecium; assay: Antimicrobial activity against vancomycin-revertant and teicoplanin-sensitive VanB-type Enterococcus faecium BM4661; type: functional
[10] = target: T1, D,D-carboxypeptidase (Enterococcus faecium); assay: Activity of D,D-carboxypeptidase in vancomycin-revertant and teicoplanin-sensitive VanB-type Enterococcus faecium BM4661 membrane fraction assessed as enzyme mediated D-Alanine release per mg protein at 8 ug/ml
[11] = target: T1, D,D-carboxypeptidase (Enterococcus faecium); assay: Activity of D,D-carboxypeptidase in vancomycin-resistant and teicoplanin-sensitive VanB-type Enterococcus faecium BM4659 membrane fraction assessed as enzyme mediated D-Alanine release per mg protein at 8 ug/ml
[12] = tested on: Enterococcus faecium; assay: Antimicrobial activity against vancomycin-dependent VanB-type Enterococcus faecium BM4660; type: functional

How did the Activity [1] turn out when `CN[C@H](CC(C)C)C(=O)N[C@H]1C(=O)N[C@@H](CC(N)=O)C(=O)N[C@H]2C(=O)N[C@H]3C(=O)N[C@H](C(=O)N[C@H](C(=O)O)c4cc(O)cc(O)c4-c4cc3ccc4O)[C@H](O)c3ccc(c(Cl)c3)Oc3cc2cc(c3O[C@@H]2O[C@H](CO)[C@@H](O)[C@H](O)[C@H]2O[C@H]2C[C@](C)(N)[C@H](O)[C@H](C)O2)Oc2ccc(cc2Cl)[C@H]1O` [VANCOMYCIN] was run?
The Activity was 30 nmol/min/mg.

And the Activity [2]?
Its Activity is 4.3 nmol/min/mg.

And the MIC [3]?
The MIC was 64 µg/mL (≈ 44.2 µM).

And the Activity [4]?
Its Activity is 128 nmol/min/mg.

And the Activity [5]?
Its Activity is 5.3 nmol/min/mg.

What about the Activity [6] of the same compound?
The Activity was 13 nmol/min/mg.

What about the Activity [7] of the same compound?
The Activity was 99 nmol/min/mg.

What about the Activity [8] of the same compound?
Its Activity is 255 nmol/min/mg.

What about the MIC [9] of the same compound?
Its MIC is 256 µg/mL (≈ 177 µM).

And the Activity [10]?
The Activity was 27 nmol/min/mg.

What about the Activity [11] of the same compound?
Its Activity is 115 nmol/min/mg.

And the MIC [12]?
The MIC was 256 µg/mL (≈ 177 µM).
